Molecules are shown by their SMILES. Entries after “also recorded” stand apart in the source; their conditions may differ. Like-named read-outs stand apart in the source and are kept apart here.

These results are taken from patent US8580579B2, “Hydrophilic and lipophilic rhodamines for labelling and imaging” (Max-Planck-Gesellschaft zur Foerderung der Wissenschaften …, priority 2009, dated 2013).

For series [1] the following is noted: cited from earlier work; for Φfl: no solvent given in the cell.
The conditions of series [2]: cited from earlier work.
Series [3] in a line: Fluorescence quantum yield, Atto 633 as reference. It is filed as physicochemical. The following applies: Atto 633 as reference (Φfl = 64% in aqueous buffer). An excerpt: Moreover, intersystem crossing rates (kISC) and rates of the T1→S0 transitions were also found to be the same for both deuterated and undeuterated substances (see ref. to Table 2).
Series [4] is described as follows: UV-visible absorption and fluorescence spectra of the dyes of the invention. The series is classed as physicochemical. The following applies: for ε · 10^−5 / λmax (abs.) / λmax (fl.): solvent MeOH. Here is the method: UV-visible absorption spectra were recorded on a Varian Cary 4000 UV-Vis spectrophotometer, and fluorescence spectra on a Varian Cary Eclipse fluorescence spectrophotometer. Reactions were carried out upon magnetic stirring in Schlenk flasks equipped with septa or reflux condensers with bubble-counters under argon using a standard manifold with vacuum and argon lines. All NMR spectra are referenced to tetramethylsilane as an internal standard (δ=0 ppm) using the signals of the residual protons of CHCl3 (7.26 ppm) in CDCl3, CHD2OD (3.31 ppm) in CD3OD, HOD (4.75 ppm) in D2O, [D5]acetone (2.04 ppm) in [D6]acetone or [D5]DMSO (2.50 ppm) in [D6]DMSO. Multiplicities of signals are described as follows: s=singlet, br. s=broad singlet, d=doublet, t=triplet, q=quartet, quint=quintet, m=multiplet, mc=centrosymmetrical multiplet. Coupling constants (J) are given in Hz. Multiplicities in the ^13C NMR spectra were determined by APT (Attached Proton Test) measurements. Low resolution mass spectra (electro spray ionization, ESI) were obtained with LCQ and ESI-TOF mass-spectrometers (MICROTOF (focus), Fa. Bruker). The MICROTOF spectrometer equipped with ESI ion source Apollo and direct injector with LC autosampler Agilent RR 1200 was used for obtaining high resolution mass spectra (ESI-HRMS). ESI-HRMS were obtained also on APEX IV spectrometer (Bruker). HPLC system (Knauer): Smartline pump 1000 (2×), UV detector 2500, column thermostat 4000 (25° C.), mixing chamber, injection valve with 20 and 100 μL loop for the analytical and preparative columns, respectively; 6-port-3-channel switching valve; analytical column: Eurospher-100 C18, 5 μm, 250×4 mm, 1.1 mL/min; preparative column: Eurospher-100-5 C18, 5 μm, 250×8 mm, 3.7 mL/min; solvent A: water+0.1% v/v trifluoroacetic acid (TFA); solvent B: MeCN+0.1% v/v TFA; detection at 636 nm (if not stated otherwise). Normal phase analytical TLC was performed on MERCK ready-to-use plates with silica gel 60 (F254) and reversed phase TLC—on RP-18W/UV254 precoated TLC plates (Macherey-Nagel). Preparative TLC was performed on MERCK HPTLC silica gel 60 plates (10×10 cm, layer thickness 0.2 mm). Column chromatography: MERCK silica gel, grade 60, 0.04-0.063 mm or Polygoprep 60-50 C18 (Macherey-Nagel).

The nature of series [5]: Solubility and polarity of the dyes.
A short description of series [6]: Chemical and storage stability of dyes and reactive derivatives. It is filed as physicochemical. The following applies: for chemical stability of the active ester: isolation and storage. An excerpt:
Usually, amino- or thiol reactive derivatives of the fluorescent dyes are used for labelling of proteins. For conjugation with amines, the free carboxy group needs to be activated by the formation of N-hydroxy(sulfo)succinimidyl esters, phenyl esters with electron-acceptor groups in the benzene ring or similar compounds with good leaving groups. […] Ester 8 partly decomposed in the course of chromatographic isolation using silica gel. Therefore, the reaction mixture containing the active ester 8 was used for labelling the lipids in their non-polar domain and other coupling procedures. […] They were isolated by reversed-phase HPLC using the gradient elution with aqueous acetonitrile with 0.1% (v/v) of TFA, lyophilized and stored at −20° C. under argon. Under these conditions, the content of the corresponding acids 6/6D in the very light dark blue voluminous solids increased from 3-5% up to 7-10% in 2 months. The higher stability of the NHS esters 9 and 10 may be explained by the absence of any nucleophilic counter ion. The maleimide derivative 11 has been prepared straight from compounds 9 and 10 by combining them in DMF with Et3N as base. It was also isolated by HPLC.

Experiment in series [7]: as above
It is filed as physicochemical. The following applies: at RT.

With `O=C(O)CCCCCNC(=O)COc1ccc(/C=C/C2=[N+]3C(=Cc4ccc(-c5cccs5)n4[B-]3(F)F)C=C2)cc1` [BODIPY ® 630/650], the τfl in series [1] (EtOH) is reported as 4.4 (EtOH)^1 ns. Further, in series [1] (H2O), the τfl is 3.9 (H2O) ns. Moreover, the Φfl result in series [1] is ““good””. Also, in series [1] (solvent MeOH), the “ε · 10^−5” value is on record as 1.01 M^−1 cm^−1, the “λmax (abs.)” value is on record as 625 nm and the “λmax (fl.)” value is 640 nm. Also, the “Solubility (solvents)” value in series [2] was “DMSO, MeCN”.
In series [3], `CC1=CC(C)(C)N2CCCc3c4c(cc1c32)C(c1c(F)c(F)c(F)c(F)c1C(=O)N(C)CCC(=O)O)=c1cc2c3c(c1O4)CCC[N+]=3C(C)(C)C=C2C` [Compound 5-H] yielded a Φfl in water of 53%. The Stokes shift in series [4] (dyes of the invention) is recorded as 23 nm. In addition, in series [4], the “ε · 10^−5” value came out at 0.73 M^−1 cm^−1, the “λmax (abs.)” value is 638 nm and the “λmax (fl.)” value turned out to be 661.5 nm. Also, in series [5], the “Solubility (solvents)” value was “DMF, THF, CHCl3;”; the polarity result is reported as “non-polar”; the “solubility in organic solvents” value is on record as “moderately soluble in polar organic solvents; also recorded: very good”; the “solubility in water or aqueous buffers” value is listed as “very slightly soluble in water”.
As to `COC(=O)CCN(C)C(=O)c1c(F)c(F)c(F)c(F)c1C1=c2cc3c4c(c2Oc2c1cc1c5c2CCCN5C(C)(C)C=C1C)CCC[N+]=4C(C)(C)C=C3C` [Compound 5-Me], the Φfl in water in series [3] is 62%. For the same compound, in series [4], the “ε · 10^−5” value was 0.66 M^−1 cm^−1, the “λmax (abs.)” value worked out at 638 nm and the “λmax (fl.)” value was found to be 661.5 nm. For the same compound, in series [5], the “Solubility (solvents)” value is given as “DMF, THF, CHCl3;”; the polarity result was “non-polar”; the “solubility in organic solvents” value is given as “soluble in most organic solvents (except alkanes)”; the “solubility in water or aqueous buffers” value is “insoluble in water”.
As for `CC1=CC(C)(C)N2CCCc3c4c(cc1c32)C(c1c(F)c(F)c(F)c(F)c1C(=O)N(C)CCC(=O)OC(C)(C)C)=c1cc2c3c(c1O4)CCC[N+]=3C(C)(C)C=C2C` [Compound 5-tBu], the Φfl in water in series [3] came to 61%. For the same compound, in series [4], the “ε · 10^−5” value worked out at 0.92 M^−1 cm^−1, the “λmax (abs.)” value worked out at 638 nm and the “λmax (fl.)” value was determined as 661 nm. In addition, in series [5], the “Solubility (solvents)” value is recorded as “DMF, THF, CHCl3;”; the polarity entry is recorded as “non-polar”; the “solubility in organic solvents” value is given as “soluble in most organic solvents (except alkanes)”; the “solubility in water or aqueous buffers” value is on record as “insoluble in water”.
Regarding `COC(=O)c1c(F)c(F)c(F)c(F)c1C1=c2cc3c4c(c2Oc2c1cc1c5c2CCCN5C(C)(C)C=C1C)CCC[N+]=4C(C)(C)C=C3` [Compound 7], in series [4], the “λmax (abs.)” value is listed as 632 nm and the “λmax (fl.)” value is 655.5 nm. For the same compound, in series [5], the “Solubility (solvents)” value is on record as “CHCl3, THF” and the polarity entry is reported as “non-polar”.
Consider `CC1=CC(C)(C)N2CCCc3c4c(cc1c32)C(c1c(F)c(F)c(F)c(F)c1C(=O)N(C)CCC(=O)Oc1c(F)c(F)cc(F)c1F)=c1cc2c3c(c1O4)CCC[N+]=3C(C)(C)C=C2C` [Compound 8], for which the “chemical stability of the active ester” value in series [6] was “Low chemical stability”.
As to `CN(CCC(=O)ON1C(=O)CCC1=O)C(=O)c1c(F)c(F)c(F)c(F)c1C1=c2cc3c4c(c2Oc2c1cc1c5c2CCCN5C(C)(C)C=C1CS(=O)(=O)O)CCC[N+]=4C(C)(C)C=C3CS(=O)(=O)[O-]` [Compound 9], the “chemical stability of the active ester” value in series [6] is “remarkably stable”. Further, the “stability in a solid state” value in series [6] (under Ar) is “stable”. The “stability in aqueous solutions” value in series [7] is given as “decomposes”. Moreover, the “solubility in water or aqueous buffers” value in series [5] is on record as “soluble in water”.
As for `CCN(CC)c1ccc2c(C=CC=C3N(CCCCCC(=O)O)c4ccc(S(=O)(=O)[O-])cc4C3(C)C)cc(C(C)(C)C)[o+]c2c1` [DY-630], the τfl in series [1] (H2O) is on record as 0.21 ns. The Φfl result in series [1] is “Varies^6”. Also, in series [1] (solvent EtOH), the “ε · 10^−5” value was 2.0 M^−1 cm^−1, the “λmax (abs.)” value is 636 nm and the “λmax (fl.)” value was 657 nm. Further, in series [1] (solvent H2O), the “λmax (abs.)” value was 627^1 nm and the “λmax (fl.)” value is reported as 651^1 nm. The “Solubility (solvents)” value in series [2] was “MeOH, EtOH,; also recorded: DMF, DMSO”.
As for `CC[N+](CC)=c1ccc2c(/C=C/C=C3/N(CCCS(=O)(=O)[O-])c4ccc(S(=O)(=O)[O-])cc4C3(C)CCCC(=O)O)cc(C(C)(C)C)oc-2c1.[Na+]` (centres unmarked) [DY-631], the “ε · 10^−5” value in series [1] (solvent EtOH) is on record as 2.0 M^−1 cm^−1. Moreover, the “Solubility (solvents)” value in series [2] is “H2O, MeOH,; also recorded: DMF, DMSO”.
For the compound `CC[N+](CCCS(=O)(=O)[O-])=c1ccc2c(C=CC=C3N(CCCCCC(=O)O)c4ccc(S(=O)(=O)[O-])cc4C3(C)C)cc(C(C)(C)C)oc-2c1.[Na+]` [DY-633], the “ε · 10^−5” value in series [1] (solvent EtOH) is 2.0 M^−1 cm^−1. Further, in series [2], the “Solubility (solvents)” value was “H2O, MeOH,; also recorded: DMF, DMSO”.
`CC(C)(C)c1cc(C=CC=C2N(CCCC(=O)O)c3ccc(S(=O)(=O)[O-])cc3C2(C)CCCS(=O)(=O)[O-])c2ccc(=[N+](CCCS(=O)(=O)[O-])CCCS(=O)(=O)[O-])cc-2o1.[Na+].[Na+].[Na+]` (centres unmarked) [DY-634]: the “ε · 10^−5” value in series [1] (solvent EtOH) is reported as 2.0 M^−1 cm^−1. Further, the “Solubility (solvents)” value in series [2] is given as “H2O, MeOH,; also recorded: DMF, DMSO”.
Turning to `CC(C)(C)c1cc(C=CC=C2N(CCCCCC(=O)O)c3ccc(S(=O)(=O)[O-])cc3C2(C)C)c2cc3c4c(c2[o+]1)CCCN4CCC3` [DY-635], in series [1] (H2O), the τfl was 0.48 ns. Moreover, in series [1] (solvent EtOH), the “ε · 10^−5” value was 2.0 M^−1 cm^−1, the “λmax (abs.)” value was 647 nm and the “λmax (fl.)” value is listed as 671 nm. Also, in series [1] (solvent H2O), the “λmax (abs.)” value is reported as 635^1 nm and the “λmax (fl.)” value is recorded as 669^1 nm. Moreover, the “Solubility (solvents)” value in series [2] is reported as “MeOH, EtOH,; also recorded: DMF, DMSO”.
For `CC(C)(C)C1=CC(=CC=CC2=[N+](CCCS(=O)(=O)[O-])c3ccc(S(=O)(=O)[O-])cc3C2(C)CCCC(=O)O)c2cc3c4c(c2O1)CCCN4CCC3.[Na+]` (centres unmarked) [DY-636], in series [1] (solvent EtOH), the “ε · 10^−5” value is recorded as 2.0 M^−1 cm^−1, the “λmax (abs.)” value is 645 nm and the “λmax (fl.)” value was 671 nm. The “Solubility (solvents)” value in series [2] is “H2O, EtOH,; also recorded: DMF, DMSO”.
As to `CCN1c2cc3[o+]c(C(C)(C)C)cc(C=CC=C4N(CCCCCC(=O)O)c5ccc(S(=O)(=O)[O-])cc5C4(C)C)c3cc2C(C)=CC1(C)C` [DY-650], the τfl in series [1] (H2O) is 0.64 (H2O)^1 ns. In series [1] (solvent EtOH), the “ε · 10^−5” value was 2.2 M^−1 cm^−1, the “λmax (abs.)” value is reported as 653 nm and the “λmax (fl.)” value is given as 674 nm. Besides, in series [1] (solvent H2O), the “λmax (abs.)” value is listed as 646^1 nm and the “λmax (fl.)” value is on record as 670 nm. The “Solubility (solvents)” value in series [2] was “MeOH, EtOH,; also recorded: DMF, DMSO”.
Take `CCN(CCCS(=O)(=O)[O-])c1ccc2nc3ccc(=[N+](C)CCC(=O)O)cc-3oc2c1` [Evoblue 30]: the τfl in series [1] (H2O) is 0.64 (H2O)^1 ns. In addition, in series [1] (solvent EtOH), the “ε · 10^−5” value is on record as 1.0 M^−1 cm^−1, the “λmax (abs.)” value was 647 nm and the “λmax (fl.)” value is listed as 664 nm. Further, in series [1] (solvent H2O), the “λmax (abs.)” value is recorded as 650^1 nm and the “λmax (fl.)” value is on record as 667^1 nm. Also, the “Solubility (solvents)” value in series [2] is recorded as “H2O, MeOH,; also recorded: DMF, DMSO”.
